Test results taken from article PMC5933782, “Molecular structures of cdc2-like kinases in complex with a new inhibitor chemotype” (PLoS ONE, 2018).
pIC50: −log10 of the molar value.

Key:
CDK2/cyclin A = target: T1, CDK2/cyclin A (Homo sapiens, UniProt P24941); assay: radiometric protein kinase assay; format: biochemical; conditions: 15 μmol/L ATP; read-out: IC50 CDK2/cyclinA
T1 construct: made in house

DYRK2 = target: T2, DYRK2 (Homo sapiens, UniProt Q92630); assay: radiometric protein kinase assay; format: biochemical; conditions: 15 μmol/L ATP; read-out: IC50 DYRK 2
T2 sequence (Q92630 1-601): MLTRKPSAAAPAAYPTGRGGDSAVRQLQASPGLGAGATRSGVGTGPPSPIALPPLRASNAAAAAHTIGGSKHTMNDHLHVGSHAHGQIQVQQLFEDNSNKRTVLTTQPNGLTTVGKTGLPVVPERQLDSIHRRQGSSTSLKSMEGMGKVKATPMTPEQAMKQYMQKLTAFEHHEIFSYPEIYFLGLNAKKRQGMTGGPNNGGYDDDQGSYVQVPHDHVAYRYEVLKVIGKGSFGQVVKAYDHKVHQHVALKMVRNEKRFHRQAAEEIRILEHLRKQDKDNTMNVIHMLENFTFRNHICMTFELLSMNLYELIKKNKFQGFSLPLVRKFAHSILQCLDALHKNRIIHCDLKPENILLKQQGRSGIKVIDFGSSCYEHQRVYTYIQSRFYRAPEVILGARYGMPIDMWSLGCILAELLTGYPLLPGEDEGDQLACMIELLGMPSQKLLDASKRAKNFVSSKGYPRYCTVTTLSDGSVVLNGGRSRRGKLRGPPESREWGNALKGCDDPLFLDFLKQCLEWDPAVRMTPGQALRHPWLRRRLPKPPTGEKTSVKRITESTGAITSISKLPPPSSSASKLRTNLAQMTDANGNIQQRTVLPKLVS

786–0 = assay: NCI cancer cell line screening; format: cell-based; conditions: Homo sapiens; 786–0, Renal Cancer
Protocol: (§1) Being the most promising compound in terms of CLK1 inhibitory potency and selectivity, KuWal151 (8c) was tested in the National Cancer Institute cancer cell line screening on 57 tumor cell lines of different tissue origin [45]. With only a few exceptions, KuWal151 inhibited the growth of most cell lines in submicromolar concentrations. In Table 2 the cancer cell line inhibition data is listed with the expression rates of SPF45 and CLK1 as indicated in the Expression Atlas database (https://www.ebi.ac.uk/gxa/home). Apparently the cell lines with high levels of CLK1 encoding RNA are inhibited over average. […] However, the available data are not sufficient to construe a clear relationship between the expression levels of the putative target CLK1 and sensitivity of the cell lines against 8c. The same holds true for SPF45, an important substrate of CLK1 involved in splicing which is found to be overexpressed in many cancer cell lines. […] The lack of a straight relationship between CLK1 and/or SPF45 expression levels on the one hand and sensitivity against the CLK1 inhibitor 8c on the other hand may have various reasons, e.g. different uptake rates of the inhibitor by the cells or alternative intracellular targets. For verification of the results from the NCI screening, which is based on the in situ fixation of cells followed by staining with the protein-binding dye sulforhodamin B [47, 48], 8c was also tested on two cell lines of the NCI panel (HT-29 and MDA-MB-231) in a crystal violet assay.

A549/ATCC = assay: NCI cancer cell line screening; format: cell-based; conditions: Homo sapiens, Non-Small Cell Lung Cancer
Protocol: as §1

COLO 205 = assay: NCI cancer cell line screening; format: cell-based; conditions: Homo sapiens; COLO 205, Colon Cancer
Protocol: as §1

EKVX = assay: NCI cancer cell line screening; format: cell-based; conditions: Homo sapiens, Non-Small Cell Lung Cancer
Protocol: as §1

HCT-116 = assay: NCI cancer cell line screening; format: cell-based; conditions: Homo sapiens; HCT-116, Colon Cancer
Protocol: as §1

HL-60(TB) = assay: NCI cancer cell line screening; format: cell-based; conditions: Homo sapiens, Leukemia
Protocol: as §1

IGROV1 = assay: NCI cancer cell line screening; format: cell-based; conditions: Homo sapiens, IGROV-1; IGROV1, Ovarian Cancer
Protocol: as §1

K-562 = assay: NCI cancer cell line screening; format: cell-based; conditions: Homo sapiens, K562; K-562, Leukemia
Protocol: as §1

KM12 = assay: NCI cancer cell line screening; format: cell-based; conditions: Homo sapiens; KM12, Colon Cancer
Protocol: as §1

LOX IMVI = assay: NCI cancer cell line screening; format: cell-based; conditions: Homo sapiens, Melanoma
Protocol: as §1

MOLT-4 = assay: NCI cancer cell line screening; format: cell-based; conditions: Homo sapiens; MOLT-4, Leukemia
Protocol: as §1

NCI-H226 = assay: NCI cancer cell line screening; format: cell-based; conditions: Homo sapiens; NCI-H226, Non-Small Cell Lung Cancer
Protocol: as §1

NCI-H522 = assay: NCI cancer cell line screening; format: cell-based; conditions: Homo sapiens; NCI-H522, Non-Small Cell Lung Cancer
Protocol: as §1

NCI/ADR-RES = assay: NCI cancer cell line screening; format: cell-based; conditions: Homo sapiens, Ovarian Cancer
Protocol: as §1

OVCAR-5 = assay: NCI cancer cell line screening; format: cell-based; conditions: Homo sapiens; OVCAR-5, Ovarian Cancer
Protocol: as §1

OVCAR-8 = assay: NCI cancer cell line screening; format: cell-based; conditions: Homo sapiens; OVCAR-8, Ovarian Cancer
Protocol: as §1

RPMI-8226 = assay: NCI cancer cell line screening; format: cell-based; conditions: Homo sapiens; RPMI-8226, Leukemia
Protocol: as §1

RXF 393 = assay: NCI cancer cell line screening; format: cell-based; conditions: Homo sapiens; RXF 393, Renal Cancer
Protocol: as §1

SF-539 = assay: NCI cancer cell line screening; format: cell-based; conditions: Homo sapiens; SF-539, CNS Cancer
Protocol: as §1

SK-MEL-28 = assay: NCI cancer cell line screening; format: cell-based; conditions: Homo sapiens; SK-MEL-28, Melanoma
Protocol: as §1

SK-MEL-2 = assay: NCI cancer cell line screening; format: cell-based; conditions: Homo sapiens; SK-MEL-2, Melanoma
Protocol: as §1

SR = assay: NCI cancer cell line screening; format: cell-based; conditions: Homo sapiens, Leukemia
Protocol: as §1

SW-620 = assay: NCI cancer cell line screening; format: cell-based; conditions: Homo sapiens; SW-620, Colon Cancer
Protocol: as §1

TK-10 = assay: NCI cancer cell line screening; format: cell-based; conditions: Homo sapiens; TK-10, Renal Cancer
Protocol: as §1

UACC-257 = assay: NCI cancer cell line screening; format: cell-based, human
Protocol: as §1, with “For verification of the results from the NCI screening, which is based on the in situ fixation of cells followed by staining with the protein-binding dye sulforhodamin B [47, 48], 8c was also tested on two cell lines of the NCI panel (HT-29 and MDA-MB-231) in a crystal violet assay.” left out

CLK2 = CLK2 (Mus musculus, UniProt O35491); assay: radiometric protein kinase assay
CLK2, sequence (O35491 whole entry): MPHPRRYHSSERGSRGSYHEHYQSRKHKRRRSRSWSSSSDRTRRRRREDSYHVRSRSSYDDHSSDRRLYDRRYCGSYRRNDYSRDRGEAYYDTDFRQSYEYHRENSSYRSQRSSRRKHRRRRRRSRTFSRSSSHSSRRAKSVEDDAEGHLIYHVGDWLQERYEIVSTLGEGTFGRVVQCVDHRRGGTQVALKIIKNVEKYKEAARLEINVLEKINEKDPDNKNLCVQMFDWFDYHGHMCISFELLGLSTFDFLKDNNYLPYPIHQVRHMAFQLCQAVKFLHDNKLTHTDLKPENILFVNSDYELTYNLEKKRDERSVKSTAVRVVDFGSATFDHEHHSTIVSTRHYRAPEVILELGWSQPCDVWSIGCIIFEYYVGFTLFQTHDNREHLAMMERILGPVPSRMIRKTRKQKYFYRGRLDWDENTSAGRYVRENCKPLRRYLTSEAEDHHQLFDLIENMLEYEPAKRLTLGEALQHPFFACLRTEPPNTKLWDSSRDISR
Protocol: Buffers. Buffer A: 10 mM MgCl2, 1 mM EGTA, 1 mM DTT, 25 mM Tris-HCl pH 7.5, 50 μg heparin/mL. Buffer C: 60 mM β-glycerophosphate, 15 mM p-nitrophenylphosphate, 25 mM MOPS (pH 7.2), 15 mM EGTA, 15 mM MgCl2, 1 mM DTT, 1 mM sodium vanadate, 1 mM phenylphosphate.
Kinase activities were assayed in buffer A or C at 30°C at a final ATP concentration of 15 μmol/L. Blank values were subtracted and activities were expressed in percent of the maximal activity, i.e. in the absence of inhibitors. Controls were performed with appropriate dilutions of DMSO.
Their kinase activity was assayed in buffer A, with 1 mg histone H1/mL, in the presence of 15 μmol/L [γ-33P] ATP (3,000 Ci/mmol; 10 mCi/mL) in a final volume of 30 μL. After 30 min incubation at 30°C, the reaction was stopped by harvesting onto P81 phosphocellulose supernatant (Whatman) using a FilterMate harvester (Packard) and washing in 1% phosphoric acid. Scintillation fluid was added and the radioactivity measured in a Packard counter.
All data points for construction of dose response curves were recorded in triplicate.

SMILES: O=C1NCc2ccc3c(-c4cccc(Cl)c4)c[nH]c3c21 [8c, 3-(3-Chlorophenyl)-6,7-dihydropyrrolo[3,4-g]indol-8(1H)-one]
- pIC50 (CDK2/cyclin A): < 5.00
- pIC50 (DYRK2): < 5.00
- GI50 (786–0): 275 nM
- GI50 (A549/ATCC): 389 nM
- GI50 (COLO 205): 209 nM
- GI50 (EKVX): 355 nM
- GI50 (HCT-116): 191 nM
- GI50 (HL-60(TB)): 141 nM
- GI50 (IGROV1): 427 nM
- GI50 (K-562): 162 nM
- GI50 (KM12): 209 nM
- GI50 (LOX IMVI): 245 nM
- GI50 (MOLT-4): 257 nM
- GI50 (NCI-H226): 28800 nM
- GI50 (NCI-H522): 158 nM
- GI50 (NCI/ADR-RES): 178 nM
- GI50 (OVCAR-5): 1250 nM
- GI50 (OVCAR-8): 724 nM
- GI50 (RPMI-8226): 288 nM
- GI50 (RXF 393): 457 nM
- GI50 (SF-539): 166 nM
- GI50 (SK-MEL-28): 692 nM
- GI50 (SK-MEL-2): 316 nM
- GI50 (SR): 151 nM
- GI50 (SW-620): 209 nM
- GI50 (TK-10): 10200 nM
- GI50 (UACC-257; Homo sapiens, UACC-257, UACC-257, Melanoma): > 50000 nM
- GI50 (UACC-257; UACC-257, Melanoma): > 50100 nM
- pIC50 (CLK2): 6.29
